Earlier results, collected in patent publication US20030004116A1, “Noni extract for prevention of disease” (priority 2001, published 2003).

Assays:
[1] = system: RSV-NRK cells expressing the src oncogene
K-ras-NRK cells = details: reversible when compound withdrawn

For `COc1c(C=O)c(O)cc2c1C(=O)c1ccccc1C2=O` [Damnacathal], the effect on cells [1] is listed as “no effect” and the “morphology and cytoskeletal structure” value (K-ras-NRK cells) is listed as “induced normal morphology and cytoskeletal structure”.
